The text below walks through data of patent US5721107A, “Antibodies to G protein coupled glutamate receptors” (priority 1995, dated 1998).

Assay [1] concerns the target T1, GluG R encoded by clone 45-A (Rattus norvegicus, UniProt P23385).
T1 construct: expressed in transfected cells; host or cells: Xenopus oocytes injected with in vitro transcribed RNA of clone 45-A (cDNA in pVEGT')
The format is cell-based. As to conditions: normalized to 100 μM L-glutamate.

For assay [2], the system named is GluG R. In words: Voltage-clamp response to quisqualate of oocytes injected with RNA from a subfractionated rat cerebellum cDNA library pool. It is filed as cell-based. As to conditions: RNA from subfractionated pool of 14,000 colonies; approximately 100 ng RNA per oocyte; estimated from digital panel meter. As for the experimental part: Plasmid DNA from plates 25 to 32 were cesium chloride banded and transcribed into RNA as described above along with the positive parent pool Z99-25-32. Oocytes were injected with the RNA and voltage clamp assays, carried out as described above, identified pools Z104-25 and Z111-32 as being weakly positive, Z106-27 and Z109-30 as intermediately positive, and Z108-29 and Z110-31 as the most positive. The pool resulting in Z110-31 was chosen for further subdivision.
To confirm the result, plasmid DNA from clone #45 was prepared, transcribed and assayed in oocytes as described above. […] FIG. 2 illustrates the data taken from voltage-clamp recordings at several stages in the subfractionation of the cerebellum library. […] The peak current was truncated by the chart recorder, but the actual peak current (estimated from a digital panel meter) was approximately 1300 nA.

The subject of assay [3] is rat G protein coupled glutamate receptor. In words: Competition of tritiated glutamic acid binding to membrane preparations of transfected BHK cells. The settings on record: plus and minus quisqualate, 30 minutes, room temperature. As for the experimental part: Transfected cell lines expressing GluG R were identified by the binding of ^3 H-glutamate to membrane preparations from transfected cells. Cell lines expressing low to moderate levels of GluG R are used to set up functional screening assays.
Clones of BHK 570 and BHK TK^- ts13 cells expressing the rat G protein coupled glutamate receptor cDNA were plated in two or three 150 mm maxi-plates culture dishes and were grown to confluency. The cells from each plate were scraped in 5 ml of PBS (phosphate buffered saline, Sigma Chemical Co., St. Louis, Mo.), which was pre-chilled to 4° C. The cells were removed to a chilled centrifuged tube, and the plates were each rinsed with 5 ml of chilled PBS and pooled with the cells. The chilled tubes were spun at 1,000 rpm for two minutes, and the supernatant was discarded. The cells were frozen at either -70° C. or on dry ice. In some cases, the cells were left overnight at -70° C. […] The filters were dried in a microwave oven and counted in a […].
Protein determinations were carried out using a Coomassie Blue-based assay from Pierce Chemical Company (Rockford, Ill.) under conditions set forth by the manufacturer. One hundred microliters of undiluted cell homogenate or BSA standard was added to 2 ml of reagent and the optical density was measured at 595 nm. […]

Assay [4] relates to glutamate G protein coupled receptor. In words: Voltage-clamp assay of injected oocytes, inhibition of glutamic acid-evoked current by putative antagonist. The format is cell-based, rat. As to conditions: antagonist 1 mM. The protocol:
Voltage clamp assays were also carried out on injected oocytes to measure the inhibition by the putative glutamate G protein coupled receptor antagonist, 2-amino-3-phosphonopropionic acid (AP3).

The mark [5] stands for this setting: 100 μM, saturating concentration.

Read-outs that look alike come from different tables or passages of the source.

T1 sequence (P23385 33-1199): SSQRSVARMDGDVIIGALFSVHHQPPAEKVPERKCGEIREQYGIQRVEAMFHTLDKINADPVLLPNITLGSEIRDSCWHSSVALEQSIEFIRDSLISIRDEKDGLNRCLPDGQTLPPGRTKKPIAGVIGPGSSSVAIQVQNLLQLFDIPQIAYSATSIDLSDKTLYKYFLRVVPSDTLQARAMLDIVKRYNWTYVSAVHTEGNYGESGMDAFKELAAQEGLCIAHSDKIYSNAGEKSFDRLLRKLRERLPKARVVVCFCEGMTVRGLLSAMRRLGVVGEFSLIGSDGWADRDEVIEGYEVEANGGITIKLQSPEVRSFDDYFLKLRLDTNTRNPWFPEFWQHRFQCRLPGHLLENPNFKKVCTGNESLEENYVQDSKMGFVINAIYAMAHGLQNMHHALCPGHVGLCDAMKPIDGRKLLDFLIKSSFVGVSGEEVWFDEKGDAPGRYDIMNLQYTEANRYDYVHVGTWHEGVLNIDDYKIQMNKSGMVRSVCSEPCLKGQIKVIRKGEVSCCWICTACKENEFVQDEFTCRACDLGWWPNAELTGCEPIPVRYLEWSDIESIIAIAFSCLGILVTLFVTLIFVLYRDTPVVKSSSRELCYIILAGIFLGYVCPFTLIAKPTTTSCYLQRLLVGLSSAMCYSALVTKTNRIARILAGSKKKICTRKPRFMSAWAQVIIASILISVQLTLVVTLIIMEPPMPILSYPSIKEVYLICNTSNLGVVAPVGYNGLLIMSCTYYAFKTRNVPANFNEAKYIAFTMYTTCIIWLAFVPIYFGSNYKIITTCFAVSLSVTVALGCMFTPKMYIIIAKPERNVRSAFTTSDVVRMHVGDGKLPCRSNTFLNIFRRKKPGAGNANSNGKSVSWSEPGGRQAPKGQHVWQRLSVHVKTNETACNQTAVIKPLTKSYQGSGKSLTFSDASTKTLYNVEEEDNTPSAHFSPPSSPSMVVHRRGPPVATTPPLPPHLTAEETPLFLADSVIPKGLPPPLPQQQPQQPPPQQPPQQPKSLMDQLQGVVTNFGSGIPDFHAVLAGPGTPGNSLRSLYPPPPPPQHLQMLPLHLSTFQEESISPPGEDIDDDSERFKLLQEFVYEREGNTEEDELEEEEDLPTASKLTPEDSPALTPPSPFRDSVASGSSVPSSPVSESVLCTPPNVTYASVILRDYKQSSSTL

Regarding `Cc1onc(O)c1CC(N)C(=O)O` (stereo not drawn) [AMPA, α-amino-3-hydroxy-5-methyl-isoxazole-4-propionic acid], the “response of oocytes to L-glutamic acid analog (effectiveness)” value in assay [1] (setting [5]) was “ineffective”.

As for `N[C@@H](Cn1oc(=O)[nH]c1=O)C(=O)O` [Quisqualic acid, quisqualic acid], in assay [2], the “peak current in response to quisqualate” value is “approximately 1300 nA”. For the same molecule, the “competitive binding to glutamate receptor expressed by transfected BHK cells” value in assay [3] is “able to competitively bind the glutamate receptor”.

For the molecule `NC(CP(=O)(O)O)C(=O)O` (racemic) [DL-AP3, 2-amino-3-phosphonopropionic acid], the “current evoked by 10 μM glutamic acid, reduced to % of the control” value in assay [4] was 59.3±7.3 % of the control.

Consider `CN[C@H](CC(=O)O)C(=O)O` [NMDA, N-methyl-D-aspartic acid], for which the “response of oocytes to L-glutamic acid analog (effectiveness)” value in assay [1] (100 μM NMDA+10 μM glycine) is recorded as “ineffective”.

For the molecule `C=C(C)[C@H]1CN[C@H](C(=O)O)[C@H]1CC(=O)O` [kainic acid], the “response of oocytes to L-glutamic acid analog (effectiveness)” value in assay [1] (1 mM, saturating concentration) is reported as “ineffective”.

Regarding `N[C@@H](CC(=O)O)C(=O)O` [aspartic acid], in assay [1] (1 mM, saturating concentration), the “response of oocytes to L-glutamic acid analog (effectiveness)” value is “ineffective”.

Regarding `NC(CCP(=O)(O)O)C(=O)O` (centres unmarked) [APB, 2-amino-4-phosphonobytyric acid], in assay [1] (setting [5]), the “response of oocytes to L-glutamic acid analog (effectiveness)” value is “ineffective”.
